IC50 and Activity data for two compounds are collected here from ChEMBL document CHEMBL1158281, “Montiporic acids A and B, cytotoxic and antimicrobial polyacetylene carboxylic acids from eggs of the scleractinian coral Montipora digitata” (J Nat Prod, 1996).

The test system of one test is P388. In words: Cytotoxicity against mouse P388 cells. The test is classed as functional, cell-based.
In another test the test system is Escherichia coli. The test can be described thus: Antibacterial activity against Escherichia coli. The test is classed as functional, organism-based.

Structures are written as SMILES. Values after ≈ are worked out from the molar mass of the structure shown. Active and inactive are the calls of the source. The calls are words filed in the database; no cut-off is given here.

The term IC50 denotes the concentration at which inhibition is half-maximal. As for `C=CCCCCCCCC#CC#CCOCC(=O)O` [MONOTIPORIC ACID B], it took 12 µg/mL (≈ 45.7 µM) to reach half-maximal inhibition with P388 (IC50). Further, the outcome with Escherichia coli was Active.
For `CCCCCCCC#CC#CCOCC(=O)O` [MONOTIPORIC ACID A], in that order: 5 µg/mL (≈ 21.2 µM) and “Active”.
